Calls of active or inactive are those of the source. The calls are words filed in the database; no cut-off is given here.
Columns and labels:
[1] = Cmax in Balb/C mouse at 10 mg/kg, iv measured upto 48 hrs by LC-MS/MS analysis; type: ADME, organism-based; parameters: dose 10 mg/kg, time < 48 hrs, route iv; conditions: in vivo
[2] = Cmax in Balb/C mouse at 10 mg/kg, po measured upto 48 hrs by LC-MS/MS analysis; type: ADME, organism-based; parameters: dose 10 mg/kg, time < 48 hrs, route po; conditions: in vivo
Mus musculus [3] = assay: Anti-inflammatory activity against DSS-induced acute ulcerative colitis C57BL/6 mouse model assessed as reduction in fecal occult blood at 20 to 40 mg/kg, po once a day measured after 2 days followed by 7 days after DSS treatment; type: functional, organism-based; conditions: dose 20-40 mg/kg, time 2.0 day
RAW264.7 [4] = assay: Inhibition of MDP-stimulated TNFalpha production in mouse RAW264.7 cells assessed as TNFalpha mRNA level upto 50 nM incubated for 22 hrs by real-time PCR analysis; type: functional, cell-based
[5] = Clearance in Balb/C mouse plasma at 10 mg/kg, iv measured upto 48 hrs by LC-MS/MS analysis; type: ADME, organism-based
[6] = Drug uptake in DSS-induced acute ulcerative colitis C57BL/6 mouse model assessed as drug concentration in colon at 20 mg/kg, po after 0.5 hrs; type: ADME, organism-based; conditions: read-out: Drug uptake
[7] = target: Mast/stem cell growth factor receptor Kit (Homo sapiens, UniProt P10721); assay: Inhibition of human KIT by kinase assay
Chain of Mast/stem cell growth factor receptor Kit (P10721 whole entry): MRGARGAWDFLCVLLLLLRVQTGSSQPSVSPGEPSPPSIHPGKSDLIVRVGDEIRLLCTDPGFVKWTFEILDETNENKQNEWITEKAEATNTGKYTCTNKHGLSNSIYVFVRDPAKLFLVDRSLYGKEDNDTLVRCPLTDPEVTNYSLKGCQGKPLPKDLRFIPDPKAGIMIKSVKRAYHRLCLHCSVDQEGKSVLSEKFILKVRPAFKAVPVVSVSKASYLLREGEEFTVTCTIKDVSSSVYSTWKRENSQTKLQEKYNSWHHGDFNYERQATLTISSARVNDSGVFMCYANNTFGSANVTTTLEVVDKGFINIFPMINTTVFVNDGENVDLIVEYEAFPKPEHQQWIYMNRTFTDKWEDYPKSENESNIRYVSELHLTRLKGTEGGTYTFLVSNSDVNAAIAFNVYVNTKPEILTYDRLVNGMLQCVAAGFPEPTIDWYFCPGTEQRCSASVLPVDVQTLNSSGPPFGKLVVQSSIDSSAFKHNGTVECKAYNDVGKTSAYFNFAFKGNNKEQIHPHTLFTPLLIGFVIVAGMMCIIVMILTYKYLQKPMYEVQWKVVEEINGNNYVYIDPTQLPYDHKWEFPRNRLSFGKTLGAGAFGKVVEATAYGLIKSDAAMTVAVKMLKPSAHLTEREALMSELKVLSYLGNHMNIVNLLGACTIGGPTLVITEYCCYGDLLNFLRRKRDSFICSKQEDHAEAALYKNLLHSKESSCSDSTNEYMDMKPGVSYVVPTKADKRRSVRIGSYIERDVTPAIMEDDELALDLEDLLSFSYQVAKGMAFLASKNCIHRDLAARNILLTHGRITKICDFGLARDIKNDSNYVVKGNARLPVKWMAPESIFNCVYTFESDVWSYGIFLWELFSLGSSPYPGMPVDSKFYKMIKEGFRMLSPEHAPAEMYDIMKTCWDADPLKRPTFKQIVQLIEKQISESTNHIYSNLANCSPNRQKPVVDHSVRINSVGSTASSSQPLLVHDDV

[8] = Oral bioavailability in Balb/C mouse at 10 mg/kg measured upto 48 hrs by LC-MS/MS analysis; type: ADME, organism-based; conditions: in vivo
[9] = target: Platelet-derived growth factor receptor beta (Homo sapiens, UniProt P09619); assay: Inhibition of human PDGFRbeta by kinase assay
Chain of Platelet-derived growth factor receptor beta (P09619 whole entry): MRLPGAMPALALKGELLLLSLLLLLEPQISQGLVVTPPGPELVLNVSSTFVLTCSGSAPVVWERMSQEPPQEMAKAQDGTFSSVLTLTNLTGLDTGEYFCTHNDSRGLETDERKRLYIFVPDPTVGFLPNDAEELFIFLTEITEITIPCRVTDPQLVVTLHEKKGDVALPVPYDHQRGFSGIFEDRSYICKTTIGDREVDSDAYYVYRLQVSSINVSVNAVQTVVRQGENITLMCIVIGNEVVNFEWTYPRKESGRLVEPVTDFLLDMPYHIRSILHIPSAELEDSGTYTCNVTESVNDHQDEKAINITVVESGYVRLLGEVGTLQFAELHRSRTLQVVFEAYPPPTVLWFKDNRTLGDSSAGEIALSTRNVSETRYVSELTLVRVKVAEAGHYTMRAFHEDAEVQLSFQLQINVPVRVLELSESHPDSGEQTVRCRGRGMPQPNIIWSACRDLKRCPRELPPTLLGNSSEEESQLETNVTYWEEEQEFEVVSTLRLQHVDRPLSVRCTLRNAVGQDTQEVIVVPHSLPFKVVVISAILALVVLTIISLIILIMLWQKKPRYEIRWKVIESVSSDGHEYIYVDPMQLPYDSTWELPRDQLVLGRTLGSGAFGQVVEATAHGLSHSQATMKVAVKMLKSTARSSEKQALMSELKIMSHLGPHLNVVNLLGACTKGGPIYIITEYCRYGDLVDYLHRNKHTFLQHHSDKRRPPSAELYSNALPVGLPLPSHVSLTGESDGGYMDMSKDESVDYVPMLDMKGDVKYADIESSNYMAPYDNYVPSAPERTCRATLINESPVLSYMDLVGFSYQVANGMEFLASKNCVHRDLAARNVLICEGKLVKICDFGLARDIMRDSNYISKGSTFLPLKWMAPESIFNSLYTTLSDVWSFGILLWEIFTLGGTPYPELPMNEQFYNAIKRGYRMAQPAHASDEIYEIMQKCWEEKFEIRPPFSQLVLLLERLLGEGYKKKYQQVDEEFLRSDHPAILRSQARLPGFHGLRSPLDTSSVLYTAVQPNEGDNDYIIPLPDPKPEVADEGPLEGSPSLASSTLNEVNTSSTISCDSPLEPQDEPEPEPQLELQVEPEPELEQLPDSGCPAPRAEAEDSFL

Mus musculus [10] = assay: Anti-inflammatory activity against DSS-induced acute ulcerative colitis C57BL/6 mouse model assessed as recovery of weight loss at 20 mg/kg, po for 6 consecutive days; type: functional, organism-based
[11] = Drug uptake in DSS-induced acute ulcerative colitis C57BL/6 mouse model assessed as drug concentration in colon at 20 mg/kg, po after 8 hrs; type: ADME, organism-based; conditions: read-out: Drug uptake
RAW264.7 [12] = assay: Cytotoxicity against mouse RAW264.7 cells at 62.5 to 250 nM in presence of NOD measured after 24 hrs by propidium iodide staining based flow cytometry; type: toxicity, cell-based; conditions: raw264.7, 24 h, 0.25 µM, dose 62.5-250 nM
[13] = target: Epithelial discoidin domain-containing receptor 1 (Homo sapiens, UniProt Q08345); assay: Inhibition of human DDR1 by kinase assay
Chain of Epithelial discoidin domain-containing receptor 1 (Q08345 whole entry, the tested form may be a part): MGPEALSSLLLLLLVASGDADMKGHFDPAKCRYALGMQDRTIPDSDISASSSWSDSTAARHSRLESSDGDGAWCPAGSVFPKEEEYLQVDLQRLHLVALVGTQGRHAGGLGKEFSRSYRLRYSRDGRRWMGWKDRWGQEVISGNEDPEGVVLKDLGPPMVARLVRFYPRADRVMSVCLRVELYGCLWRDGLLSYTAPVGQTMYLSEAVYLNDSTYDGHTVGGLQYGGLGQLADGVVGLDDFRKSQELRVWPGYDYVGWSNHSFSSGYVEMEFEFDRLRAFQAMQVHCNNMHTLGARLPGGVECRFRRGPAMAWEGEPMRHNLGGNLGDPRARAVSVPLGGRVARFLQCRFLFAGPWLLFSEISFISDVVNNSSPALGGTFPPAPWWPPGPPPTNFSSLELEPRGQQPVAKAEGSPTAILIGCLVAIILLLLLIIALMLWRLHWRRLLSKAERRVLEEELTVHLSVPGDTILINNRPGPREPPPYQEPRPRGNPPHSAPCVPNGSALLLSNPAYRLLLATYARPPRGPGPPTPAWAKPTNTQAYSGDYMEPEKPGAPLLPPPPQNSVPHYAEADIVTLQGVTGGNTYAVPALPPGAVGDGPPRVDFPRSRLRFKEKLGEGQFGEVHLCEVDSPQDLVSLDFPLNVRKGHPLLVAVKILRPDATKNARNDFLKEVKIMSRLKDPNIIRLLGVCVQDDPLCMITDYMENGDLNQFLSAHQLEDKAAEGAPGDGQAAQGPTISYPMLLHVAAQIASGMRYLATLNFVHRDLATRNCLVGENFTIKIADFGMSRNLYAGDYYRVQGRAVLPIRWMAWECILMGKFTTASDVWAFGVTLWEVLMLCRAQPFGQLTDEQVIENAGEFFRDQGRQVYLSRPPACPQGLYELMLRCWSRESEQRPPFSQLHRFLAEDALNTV

[14] = target: Receptor-interacting serine/threonine-protein kinase 2 (Homo sapiens, UniProt O43353); assay: Binding affinity to human RIPK2 in HEK293 cells; type: cell-based
Chain of Receptor-interacting serine/threonine-protein kinase 2 (O43353 whole entry): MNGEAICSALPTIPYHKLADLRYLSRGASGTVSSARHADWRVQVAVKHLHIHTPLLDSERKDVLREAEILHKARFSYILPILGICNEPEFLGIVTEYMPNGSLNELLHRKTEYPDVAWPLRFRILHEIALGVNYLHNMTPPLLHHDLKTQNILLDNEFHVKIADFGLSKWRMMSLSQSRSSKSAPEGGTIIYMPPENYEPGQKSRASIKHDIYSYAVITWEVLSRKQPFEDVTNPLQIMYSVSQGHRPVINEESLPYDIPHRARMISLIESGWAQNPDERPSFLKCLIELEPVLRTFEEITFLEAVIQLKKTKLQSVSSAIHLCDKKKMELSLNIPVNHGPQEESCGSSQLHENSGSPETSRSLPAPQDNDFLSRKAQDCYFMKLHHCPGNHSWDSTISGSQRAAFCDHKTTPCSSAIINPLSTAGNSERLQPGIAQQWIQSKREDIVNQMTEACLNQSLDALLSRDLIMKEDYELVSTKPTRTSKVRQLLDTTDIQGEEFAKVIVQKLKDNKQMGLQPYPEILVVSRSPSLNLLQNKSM

[15] = Elimination half life in Balb/C mouse at 10 mg/kg, po measured upto 48 hrs by LC-MS/MS analysis; type: ADME, organism-based; conditions: in vivo, read-out: beta t1/2 (converted)
[16] = Volume of distribution in Balb/C mouse at 10 mg/kg, po measured upto 48 hrs by LC-MS/MS analysis; type: ADME, organism-based; conditions: in vivo
[17] = target: T1, Receptor-interacting serine/threonine-protein kinase 4 (Homo sapiens, UniProt P57078); assay: Binding affinity to human RIPK4
T1 sequence (P57078 whole entry): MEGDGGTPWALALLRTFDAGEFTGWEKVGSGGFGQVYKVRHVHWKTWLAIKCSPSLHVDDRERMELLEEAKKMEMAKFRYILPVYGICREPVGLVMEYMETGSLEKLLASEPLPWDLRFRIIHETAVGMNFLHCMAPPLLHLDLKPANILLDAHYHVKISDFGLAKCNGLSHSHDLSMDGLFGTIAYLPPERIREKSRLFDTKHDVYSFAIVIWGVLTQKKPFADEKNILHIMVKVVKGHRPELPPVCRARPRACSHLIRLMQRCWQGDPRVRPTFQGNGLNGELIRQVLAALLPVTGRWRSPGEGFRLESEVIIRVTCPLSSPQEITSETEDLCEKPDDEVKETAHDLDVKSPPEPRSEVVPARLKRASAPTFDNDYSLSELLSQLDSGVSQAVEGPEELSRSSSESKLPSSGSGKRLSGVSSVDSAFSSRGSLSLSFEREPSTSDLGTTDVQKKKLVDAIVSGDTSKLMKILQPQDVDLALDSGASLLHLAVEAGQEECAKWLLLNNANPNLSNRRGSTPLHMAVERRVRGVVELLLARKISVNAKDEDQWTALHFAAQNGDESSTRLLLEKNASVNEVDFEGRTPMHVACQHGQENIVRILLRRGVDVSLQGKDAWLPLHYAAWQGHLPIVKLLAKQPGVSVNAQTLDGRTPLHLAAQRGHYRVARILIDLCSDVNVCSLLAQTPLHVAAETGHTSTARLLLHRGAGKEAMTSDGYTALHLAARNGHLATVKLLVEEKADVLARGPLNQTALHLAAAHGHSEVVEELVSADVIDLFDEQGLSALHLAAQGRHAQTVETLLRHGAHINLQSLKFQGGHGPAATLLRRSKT

[18] = Inhibition of LPS/MDP-stimulated TNFalpha production in C57BL/6J mouse BMDM cells by ELISA relative to control; type: functional, cell-based
Mus musculus [19] = assay: Anti-inflammatory activity against DSS-induced acute ulcerative colitis C57BL/6 mouse model assessed as recovery of body weight at 20 to 40 mg/kg, po once a day measured after 2 days followed by 7 days after DSS treatment; type: functional, organism-based; conditions: dose 20-40 mg/kg, time 2.0 day
BMDM = assay: Cytotoxicity against mouse BMDM cells at 62.5 to 250 nM in presence of NOD; type: toxicity, cell-based; conditions: 0.25 µM, dose 62.5-250 nM
Mus musculus [20] = assay: Anti-inflammatory activity against DSS-induced acute ulcerative colitis C57BL/6 mouse model assessed as reduction in watery stools at 20 to 40 mg/kg, po once a day measured after 2 days followed by 7 days after DSS treatment; type: functional, organism-based; conditions: dose 20-40 mg/kg, time 2.0 day
[21] = Toxicity in rat H9c2 cells assessed as inhibitory rate; type: cell-based
[22] = Clearance in Balb/C mouse plasma at 10 mg/kg, po measured upto 48 hrs by LC-MS/MS analysis; type: ADME, organism-based

- Cmax [1]: 959 ng/mL
- Cmax [2]: 68.1 ng/mL
- clearance [5]: 166 mL/min/kg
- IC50 [7]: 1510 nM
- bioavailability [8]: 15.1%
- IC50 [9]: 862 nM
- IC50 [13]: 15 nM
- Kd [14]: 0.28 nM
- half-life [15]: 3.62 h
- Vd [16]: 333.24 L/kg
- Kd [17]: 2300 nM
- IC50 [18]: 0.3 nM
- CL/F [22]: 1130 mL/min/kg
Structure (SMILES): Cc1ccc(-c2cn([C@H]3CC[C@@H](N)CC3)c3ncnc(N)c23)c(F)c1
- Activity (Mus musculus [3]): Active
- inhibition (RAW264.7 [4]): Active
- concentration at 0.5 h [6]: 3620 ng/g
- Activity (Mus musculus [10]): Active
- concentration at 8 h [11]: 9140 ng/g
- Activity (RAW264.7 [12]): Non-Toxic
- Activity (Mus musculus [19]): Active
- Activity (BMDM): Non-Toxic
- Activity (Mus musculus [20]): Active
- IC50 [21]: 12300 nM

Source: ChEMBL document CHEMBL5131564, “Discovery of Potent and Selective Receptor-Interacting Serine/Threonine Protein Kinase 2 (RIPK2) Inhibitors for the Treatment of Inflammatory Bowel Diseases (IBDs)” (J Med Chem, 2022)
